According to BigSolDB 2.1:

O=C([O-])c1ccccc1.[K+]
solubility (mole fraction)
Conditions | in DMAc | in DMF | in ethanol | in formamide | in isobutanol | in isopropanol | in methanol | in n-butanol | in n-pentanol | in n-propanol
282.95 K | 0.000243 | 0.000325 | 0.00133 | 0.0439 | 0.000248 | 0.000225 | 0.0144 | 0.000586 | 0.000517 | 0.000735
287.95 K | 0.000263 | 0.000372 | 0.00143 | 0.0444 | 0.000284 | 0.000256 | 0.0148 | 0.000617 | 0.000604 | 0.000781
293.25 K | 0.000287 | 0.000426 | 0.00157 | 0.045 | 0.000325 | 0.000286 | 0.0153 | 0.000646 | 0.000693 | 0.000841
298.25 K | 0.000309 | 0.000502 | 0.00168 | 0.0457 | 0.000355 | 0.000314 | 0.0158 | 0.000673 | 0.000776 | 0.000892
303.35 K | 0.000333 | 0.000587 | 0.00181 | 0.0465 | 0.000402 | 0.000354 | 0.0162 | 0.000731 | 0.000865 | 0.000961
308.25 K | 0.000367 | 0.000665 | 0.00192 | 0.0473 | 0.000457 | 0.000409 | 0.0167 | 0.000795 | 0.000929 | 0.00104
312.85 K | 0.000392 | 0.000722 | 0.0021 | 0.0481 | 0.000517 | 0.000459 | 0.0172 | 0.000898 | 0.000986 | 0.00115
317.95 K | 0.000425 | 0.000778 | 0.00244 | 0.0489 | 0.000572 | 0.000511 | 0.0181 | 0.000983 | 0.00105 | 0.00126
